Data on 33 molecules can be found in US20060063759A1, “Tricyclic steroid hormone nuclear receptor modulators” (priority 2002, published 2006).

SMILES strings stand for the structures.

Experiment [1] has as its target T1, human MR (Homo sapiens, UniProt P08235).
T1 construct: The full length human MR gene is cloned from a human kidney or human brain cDNA library; His tag from the pAcHLT vector (own knowledge); made in house; host or cells: Sf9 insect cells (baculovirus, pAcHLT transfer vector)
T1 sequence (P08235 1-984): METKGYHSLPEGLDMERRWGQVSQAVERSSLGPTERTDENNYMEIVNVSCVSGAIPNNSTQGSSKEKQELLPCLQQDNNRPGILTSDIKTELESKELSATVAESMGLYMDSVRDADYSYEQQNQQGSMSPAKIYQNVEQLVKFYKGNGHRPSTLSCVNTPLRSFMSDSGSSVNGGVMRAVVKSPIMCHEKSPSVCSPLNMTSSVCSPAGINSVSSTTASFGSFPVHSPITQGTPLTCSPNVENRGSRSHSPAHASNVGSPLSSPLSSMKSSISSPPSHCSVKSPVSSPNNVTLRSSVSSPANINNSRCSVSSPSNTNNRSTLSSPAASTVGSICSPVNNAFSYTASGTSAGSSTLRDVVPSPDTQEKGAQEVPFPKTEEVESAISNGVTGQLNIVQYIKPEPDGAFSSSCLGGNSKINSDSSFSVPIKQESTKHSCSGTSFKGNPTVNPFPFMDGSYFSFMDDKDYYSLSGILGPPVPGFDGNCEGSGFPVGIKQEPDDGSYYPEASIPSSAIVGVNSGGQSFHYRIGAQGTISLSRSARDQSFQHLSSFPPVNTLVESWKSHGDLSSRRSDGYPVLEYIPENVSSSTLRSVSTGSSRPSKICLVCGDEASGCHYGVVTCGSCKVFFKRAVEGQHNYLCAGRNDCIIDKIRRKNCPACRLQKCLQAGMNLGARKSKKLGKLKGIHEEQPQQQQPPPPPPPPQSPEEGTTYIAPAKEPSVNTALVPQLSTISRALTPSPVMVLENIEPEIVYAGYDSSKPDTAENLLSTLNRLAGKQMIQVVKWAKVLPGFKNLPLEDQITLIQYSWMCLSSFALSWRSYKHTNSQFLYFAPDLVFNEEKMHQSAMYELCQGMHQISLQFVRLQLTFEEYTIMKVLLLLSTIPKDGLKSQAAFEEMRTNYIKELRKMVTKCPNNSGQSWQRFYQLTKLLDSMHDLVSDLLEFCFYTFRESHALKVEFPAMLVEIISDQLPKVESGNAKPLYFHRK
The experiment in a line: Mineralocorticoid Receptor Binding Assay ([3H]-aldosterone). As to conditions: [3H]-aldosterone binding, human MR expressed in Sf9 cells; read-out: MR Ki. Summed up:
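Receptor source: freeze-thaw lysate of baculovirus-infected Sf9 cells carrying full-length human MR, 20-25 μg protein. Incubation ~16 h at 4 °C with shaking, pH 7.5 buffer containing 30 mM sodium molybdate and 10% glycerol.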

Experiment [2] has as its target T2, glucocorticoid receptor (Homo sapiens, UniProt P04150).
T2 construct: containing 50-200 ug of A549 cell extract and 1.86 nM [^3H]-dexamethasone; host or cells: A549 human lung epithelial cells (sonicated cell extract)
T2 sequence (P04150 1-777): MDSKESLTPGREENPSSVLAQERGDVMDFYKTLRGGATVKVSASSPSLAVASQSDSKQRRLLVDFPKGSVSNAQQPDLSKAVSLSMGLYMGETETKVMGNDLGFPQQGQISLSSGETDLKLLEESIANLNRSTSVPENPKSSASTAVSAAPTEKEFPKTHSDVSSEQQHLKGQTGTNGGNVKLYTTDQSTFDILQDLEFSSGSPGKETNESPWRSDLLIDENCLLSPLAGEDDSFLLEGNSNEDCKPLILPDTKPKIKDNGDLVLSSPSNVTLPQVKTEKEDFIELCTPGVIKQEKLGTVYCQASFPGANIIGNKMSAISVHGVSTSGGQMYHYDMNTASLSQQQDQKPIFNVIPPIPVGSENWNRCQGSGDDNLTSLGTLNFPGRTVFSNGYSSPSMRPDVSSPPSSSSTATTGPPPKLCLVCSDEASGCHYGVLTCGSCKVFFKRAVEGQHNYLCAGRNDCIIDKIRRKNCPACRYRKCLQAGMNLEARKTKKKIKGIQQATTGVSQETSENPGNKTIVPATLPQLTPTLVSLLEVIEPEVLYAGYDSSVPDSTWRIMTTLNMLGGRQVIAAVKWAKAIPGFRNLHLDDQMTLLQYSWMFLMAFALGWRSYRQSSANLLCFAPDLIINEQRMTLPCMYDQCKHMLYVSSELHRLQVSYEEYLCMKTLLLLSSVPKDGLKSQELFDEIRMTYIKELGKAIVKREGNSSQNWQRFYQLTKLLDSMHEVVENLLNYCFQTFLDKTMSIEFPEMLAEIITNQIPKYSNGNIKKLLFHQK
Nature of the experiment: Glucocorticoid Receptor Binding Assay ([3H]-dexamethasone, A549 cell extract). As to conditions: [3H]-dexamethasone binding, read-out: GR Ki. Summed up: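 Displacement of [3H]-dexamethasone (1.86 nM) from glucocorticoid receptor in sonicated A549 lung epithelial cell extracts, 16 h at 4 °C, pH 7.2 molybdate-containing buffer. Bound radioactivity was scintillation-counted after charcoal/dextran stripping of free ligand.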

Take `COC(=O)c1cccc(/C=C2\c3ccc(F)cc3CCc3ncccc32)c1` [Example 585]: the values for the Ki in experiment [1] and in experiment [2] were under 500 nM and under 10000 nM, respectively.
For `COC(=O)c1cccc(/C=C2/c3ccc(F)cc3CCc3ncccc32)c1` [Example 586], in that order: under 500 nM and under 10000 nM.
For the molecule `COC(=O)c1ccc(/C=C2/c3ccc(F)cc3CCc3ncccc32)cc1` [Example 587], the Ki in experiment [1] was under 500 nM; in experiment [2] it was under 10000 nM.
The corresponding values for `COC(=O)c1ccccc1/C=C1\c2ccc(F)cc2CCc2ncccc21` [Example 588] are under 500 nM and under 500 nM.
The corresponding values for `COC(=O)c1ccccc1/C=C1/c2ccc(F)cc2CCc2ncccc21` [Example 589] are under 500 nM and under 500 nM.
As to `Fc1ccc2c(c1)CCc1ncccc1/C2=C/c1cccc(C(F)(F)F)c1` [Example 590], the Ki in experiment [1] is under 500 nM; in experiment [2] it was under 1000 nM.
The corresponding values for `N#Cc1ccc2c(n1)CCc1cc(F)ccc1/C2=C\c1ccc2[nH]c(=O)[nH]c2c1` [Example 591] are under 500 nM and under 10000 nM.
The corresponding values for `CC(C)n1c(=O)[nH]c2cc(/C=C3\c4ccc(F)cc4CCc4ncccc43)ccc21` [Example 592] are under 500 nM and under 10000 nM.
For `O=c1[nH]c2cc(/C=C3\c4ccc(F)cc4CCc4ncccc43)ccc2n1C1CC1` [Example 593], in that order: under 500 nM and under 10000 nM.
In the case of `CS(=O)(=O)Nc1cc(F)cc(/C=C2/c3ccc(F)cc3CCc3nc(C(F)F)ccc32)c1` [Example 594], the Ki in experiment [1] and in experiment [2] was under 500 nM each time.
Consider `CS(=O)(=O)Nc1cc(F)cc(/C=C2\c3ccc(F)cc3CCc3nc(C(F)F)ccc32)c1` [Example 595], for which the Ki in experiment [1] and in experiment [2] was under 500 nM each time.
Take `O=c1[nH]c2cc(/C=C3\c4ccc(F)cc4CCc4ncccc43)ccc2n1CCN1CCOCC1` [Example 596]: the Ki in experiment [1] is under 500 nM; in experiment [2], under 10000 nM.
The corresponding values for `CS(=O)(=O)Nc1cc(F)cc(/C=C2\c3ccc(F)cc3CCc3nc(CF)ccc32)c1` [Example 597] are under 500 nM and under 500 nM.
The corresponding values for `CS(=O)(=O)Nc1cc(F)cc(/C=C2/c3ccc(F)cc3CCc3nc(CF)ccc32)c1` [Example 598] are under 500 nM and under 500 nM.
The corresponding values for `CS(=O)(=O)Nc1cccc(C=C2c3ccccc3C3CC3c3ccccc32)c1` (stereo not drawn) [Example 602] are under 500 nM and under 500 nM.
As for `Nc1cccc(C=C2c3ccccc3[C@H]3C[C@H]3c3ccccc32)c1` [Example 604], the Ki is under 500 nM in experiment [1] and under 1000 nM in experiment [2].
As for `O=c1[nH]c2cc(C=C3c4ccccc4C4CC4c4ccccc43)ccc2s1` (stereo not drawn) [Example 605], the Ki in experiment [1] and in experiment [2] was under 500 nM each time.
As to `O=c1[nH]c2cc(C=C3c4ccccc4[C@H]4C[C@H]4c4ccccc43)ccc2o1` [Example 606], the Ki in experiment [1] and in experiment [2] was under 500 nM in each case.
`O=c1[nH]c2cc(/C=C3\c4ccccc4COc4cc(F)ccc43)ccc2n1CCN1CCOCC1` [Example 607, 5-(3-Fluoro-6H-dibenzo[b,e]oxepin-11-ylidenemethyl)-1-(2-morpholin-4-yl-ethyl)-1,3-dihydro-benzoimidazol-2-one]: the Ki was under 500 nM in experiment [1] and under 1000 nM in experiment [2].
The corresponding values for `O=c1[nH]c2cc(/C=C3\c4ccccc4COc4cc(F)ccc43)ccc2n1CCCN1CCOCC1` [Example 608, 5-(3-fluoro-6H-dibenzo[b,e]oxepin-11-ylidenemethyl)-1-(3-morpholin-4-yl-propyl)-1,3-dihydro-benzoimidazol-2-one] are under 500 nM and under 10000 nM.
For `O=c1[nH]c2cc(/C=C3\c4ccccc4COc4cc(F)ccc43)ccc2n1C1CC1` [Example 609, 1-cyclopropyl-5-(3-fluoro-6H-dibenzo[b,e]oxepin-11-ylidenemethyl)-1,3-dihydro-benzoimidazol-2-one], in that order: under 500 nM and under 1000 nM.
For `CC(C)n1c(=O)[nH]c2cc(/C=C3\c4ccccc4COc4cc(F)ccc43)ccc21` [Example 612, 5-(3-Fluoro-6H-dibenzo[b,e]oxepin-11-ylidenemethyl)-1-isopropyl-1,3-dihydro-benzoimidazol-2-one], in that order: under 500 nM and under 10000 nM.
As to `O=c1[nH]c2ccc(/C=C3\c4ccc(F)cc4COc4cc(F)ccc43)cc2[nH]1` [Example 613, 5-(3,8-Difluoro-6H-dibenzo[b,e]oxepin-11-ylidenemethyl)-1,3-dihydro-benzoimidazol-2-one], the Ki in experiment [1] and in experiment [2] was under 500 nM throughout.
On to `O=c1[nH]c2ccc(/C=C3\c4ccccc4COc4cc(Cl)ccc43)cc2[nH]1` [Example 614, 5-(3-Chloro-6H-dibenzo[b,e]oxepin-11-ylidenemethyl)-1,3-dihydro-benzoimidazol-2-one], for which the Ki in experiment [1] is under 500 nM; in experiment [2], under 1000 nM.
The corresponding values for `O=c1[nH]c2cc(/C=C3\c4ccc(F)cc4COc4cc(F)ccc43)ccc2n1CCN1CCOCC1` [Example 617, 5-(3,8-Difluoro-6H-dibenzo[b,e]oxepin-11-ylidenemethyl)-1-(2-morpholin-4-yl-ethyl)-1,3-dihydro-benzoimidazol-2-one] are under 500 nM and under 500 nM.
For `O=c1[nH]c2cc(/C=C3/c4ccccc4COc4ccccc43)ccc2o1` [Example 619], in that order: under 500 nM and under 500 nM.
For `O=c1[nH]c2cc(/C=C3\c4ccccc4COc4ccccc43)ccc2o1` [Example 620], in that order: under 500 nM and under 500 nM.
Consider `CS(=O)(=O)Nc1cccc(/C=C2/c3ccccc3OCc3c(Cl)cccc32)c1` [Example 622], for which the Ki was under 500 nM in experiment [1] and under 10000 nM in experiment [2].
In the case of `CS(=O)(=O)Nc1cc(F)cc(/C=C2\c3ccc(Cl)cc3COc3ccccc32)c1` [Example 623], the Ki in experiment [1] and in experiment [2] was under 500 nM throughout.
For the molecule `CS(=O)(=O)Nc1cc(F)cc(/C=C2/c3ccc(Cl)cc3COc3ccccc32)c1` [Example 624], the Ki in experiment [1] and in experiment [2] was under 500 nM in each case.
As to `O=c1[nH]c2ccc(C=C3c4ccccc4COc4ccccc43)cc2[nH]1` [Example 626], the Ki in experiment [1] is under 500 nM; in experiment [2], under 10000 nM.
For `Oc1cccc(/C=C2/c3ccccc3COc3cc(F)ccc32)c1` [Example 627], in that order: under 500 nM and under 500 nM.
Regarding `Oc1cccc(/C=C2\c3ccccc3COc3cc(F)ccc32)c1` [Example 628], the Ki in experiment [1] and in experiment [2] was under 500 nM throughout.

In general, Ki refers to a measure of affinity in units of concentration, obtained from inhibition or displacement.
